Experimental data taken from patent US20020002202A1, “Use of fumarate salt of L-carnitine or its alkanoyl derivatives in ischaemia” (priority 1998, published 2002).
“Also recorded” adds a separate entry of the source.

Legend:
[1] = tested on: Perfused Heart; experiment: low-pressure or low-flow ischemia model, perfused heart (Langendorff)
Text: In this example, the low-pressure or low-flow ischemia model was used, which is a model recognised as valid for cardiac ischemia (Bolukoglu, H. et al. Am. J. Physiol. 1996: 270; H817-26).
The treatment schedule is illustrated in FIG. 1, in which the letters A-F denote the heart effluent sampling times for the measurement of metabolites. The hearts are removed from the animals and mounted on a Langerdorff appliance. The perfusion medium replacing the blood was a Krebs-Heinsleit standard bicarbonate buffer containing glucose 12 mM as energy source for cardiac metabolism.
After 30 minute perfusion at a pressure of 100 cm of water, ischemia was induced by reducing the perfusion pressure of the heart to 25 cm of water, thus reducing coronary flow from approximately 2 ml/min to approximately 0.3 ml/min. Reduction of the perfusion pressure gives rise to ischemia, since the heart will pump the fluid in the low-perfusion area rather than via the coronary bloodstream, supplying the flow to the heart.
This control model was compared with hearts perfused with L-carnitine 10 mM or L-carnitine fumarate 10 mM.
Cardiac function was tested in three different ways.
In the first, the NRM ^31P signal was monitored in real time.
This signal provides the best indication of the energy status of the heart.
In the second, the haemodynamics of the heart was measured by means of a pressure transducer mounted to measure the perfusion pressure. The haemodynamic measurements include heart rate, relative dP/dt (measurement of the contraction force of the heart) and the cardiac contraction amplitude. Coronary flow was also measured as an indicator of the heart's ability to provide oxygen and energy for its own metabolism.
In the third type of test, the metabolites and the enzyme LDH released by the heart were analysed in the effluent. The release of LDH indicates damage to cardiac tissue. The release of metabolites by the heart was tested by means of mass spectrometry coupled with gas chromatography.
The procedures of example 1 were substantially repeated, with the addition of a treatment with carnitine alone as a further control.

[2] = amount equivalent to the exogenous L-carnitine required; cited from earlier work
[3] = heart effluent, GC-MS, low-flow ischemia, 10 mM, vs control hearts

Molecule | reserves of high-energy phosphate (creatine phosphate observed at NMR) ([1]; 31P NMR, after 45 minutes of ischemia, 10 mM, vs control hearts) | succinate released by the heart ([1]; heart effluent, FIG. 3, as compared to lactate, Example 2) | lactate released by the heart [1, 3] | release of malate [1, 3] | release of LDH ([1]; heart effluent, low-flow ischemia, 10 mM in perfusion medium, vs control hearts) | coronary flow ([1]; postischemic, 10 mM, vs control hearts) | postischemic cardiac contraction amplitude ([1]; pressure transducer, 10 mM, vs control hearts) | gastrointestinal disorders (increased volume and fluidity of faeces and frequency of bowel movements) [2] | ATP phosphate peaks (alpha, beta, gamma) ([1]; 31P NMR, FIG. 2, after 40 minutes of ischemia, Example 2)
L-carnitine acid fumarate [L-carnitine fumarate] | greater | low amount | less and reduction | more | reduced; also recorded: affords protection against ischemic damage | greater | greater | eliminated | –
C[N+](C)(C)C[C@H](O)CC(=O)[O-] [L-carnitine] | – | – | – | – | – | – | – | caused | lacking
C[N+](C)(C)C[C@H](O)CC(=O)[O-].O=C(O)C(O)C(O)C(=O)O [L-carnitine L-tartrate] | – | – | – | – | – | – | – | caused | –
